The values that follow come from US20230192700A1, “PYRAZOLOPYRAZINES ACTING ON CANCERS VIA INHIBITION OF CDK12” (Bayer Aktiengesellschaft, priority 2020, published 2023).

Structures are written as SMILES.

One experiment concerns the target T1, CDK12 (Homo sapiens, UniProt Q9NYV4).
T1 construct: endogenous in cells; host or cells: CAL-120 human breast cancer cells (DSMZ ACC 459)
The experiment in a line: CDK12 nuclear protein level: immunofluorescence/high content analysis in CAL-120 cells. In kind it is cell-based. Particulars: for DC50: CAL-120 cells, 24 h, nuclear CDK12 staining intensity, median, read-out: CDK12 degradation IF DC50 - [mol/l] (median); for (IC50 CDK12 high ATP) to (Degradation DC50 CDK12) ratio: ratio of IC50 CDK12 hATP (2 mM ATP) to DC50 CDK12 (IF, CAL-120). An outline of the steps:
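Cells were exposed to compounds in dose-response for 24 h at 37 °C, then PFA-fixed, immunostained for CDK12 and counterstained with Hoechst before confocal imaging. Nuclear CDK12 intensity was normalized to DMSO and control. DC50 is the concentration giving 50% reduction of nuclear staining.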

The target of a further experiment is T2, CDK2/CyclinE (Homo sapiens, UniProt P24941).
T2 construct: GST; purchased ProQinase GmbH (Freiburg, Germany); host or cells: insect cells (Sf9)
The experiment in a line: CDK2/CycE kinase assay (TR-FRET). Format: biochemical. To be noted: 2 mM ATP (high ATP); median; read-out: CDK2/CyclinE, 2 mM ATP (high ATP) IC50 - [mol/l] (median). The method in brief: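 GST-tagged human CDK2/CycE (Sf9-expressed, ~10 ng/mL) was preincubated 15 min with compound, then run 25 min at 22 °C with 2 mM ATP and 0.75 μM biotinylated peptide, pH 8.0. Phospho-substrate was detected by TR-FRET (anti-RB pSer807/811, Eu-anti-mouse, streptavidin-XL665), 665/620 nm ratio, normalised to no-inhibitor and no-enzyme controls.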

T1 sequence (Q9NYV4 whole entry): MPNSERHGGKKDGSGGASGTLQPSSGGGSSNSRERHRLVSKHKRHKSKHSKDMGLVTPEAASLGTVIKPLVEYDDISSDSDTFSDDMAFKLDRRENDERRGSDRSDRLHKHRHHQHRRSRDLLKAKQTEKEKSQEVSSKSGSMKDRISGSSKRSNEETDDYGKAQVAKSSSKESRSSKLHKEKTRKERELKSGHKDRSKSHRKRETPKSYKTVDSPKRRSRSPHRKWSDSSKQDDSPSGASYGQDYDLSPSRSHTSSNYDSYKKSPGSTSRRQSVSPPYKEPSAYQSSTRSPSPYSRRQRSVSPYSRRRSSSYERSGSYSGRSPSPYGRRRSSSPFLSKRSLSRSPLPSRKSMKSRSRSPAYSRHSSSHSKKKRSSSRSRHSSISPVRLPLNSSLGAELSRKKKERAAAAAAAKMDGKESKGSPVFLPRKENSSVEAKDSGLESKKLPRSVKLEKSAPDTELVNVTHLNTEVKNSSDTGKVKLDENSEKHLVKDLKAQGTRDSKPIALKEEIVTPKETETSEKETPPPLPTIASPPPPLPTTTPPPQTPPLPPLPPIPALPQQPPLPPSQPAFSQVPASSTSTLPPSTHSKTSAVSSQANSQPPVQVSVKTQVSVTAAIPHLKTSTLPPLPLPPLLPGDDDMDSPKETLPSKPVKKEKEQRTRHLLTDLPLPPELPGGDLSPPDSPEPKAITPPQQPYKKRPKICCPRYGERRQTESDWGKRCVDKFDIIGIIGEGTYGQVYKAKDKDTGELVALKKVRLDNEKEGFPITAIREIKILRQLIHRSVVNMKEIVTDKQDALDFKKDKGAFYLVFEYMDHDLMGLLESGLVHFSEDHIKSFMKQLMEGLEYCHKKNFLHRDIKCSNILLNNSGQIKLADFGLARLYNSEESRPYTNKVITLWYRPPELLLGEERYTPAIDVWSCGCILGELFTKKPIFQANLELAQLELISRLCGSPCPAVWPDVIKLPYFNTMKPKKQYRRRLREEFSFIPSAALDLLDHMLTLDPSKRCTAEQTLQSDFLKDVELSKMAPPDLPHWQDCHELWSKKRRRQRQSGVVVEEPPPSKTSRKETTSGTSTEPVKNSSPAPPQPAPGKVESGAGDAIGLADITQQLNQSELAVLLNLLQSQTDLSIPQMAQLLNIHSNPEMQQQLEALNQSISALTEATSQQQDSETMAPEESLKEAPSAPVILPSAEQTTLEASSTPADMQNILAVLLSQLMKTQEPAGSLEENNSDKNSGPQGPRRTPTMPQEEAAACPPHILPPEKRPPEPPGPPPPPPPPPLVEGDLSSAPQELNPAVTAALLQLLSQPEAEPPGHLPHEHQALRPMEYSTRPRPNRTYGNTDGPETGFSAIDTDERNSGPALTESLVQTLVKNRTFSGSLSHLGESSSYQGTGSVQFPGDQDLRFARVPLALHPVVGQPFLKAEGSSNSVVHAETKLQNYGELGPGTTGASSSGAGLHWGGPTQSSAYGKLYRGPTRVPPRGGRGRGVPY
T1 sequence (O75909 whole entry partner): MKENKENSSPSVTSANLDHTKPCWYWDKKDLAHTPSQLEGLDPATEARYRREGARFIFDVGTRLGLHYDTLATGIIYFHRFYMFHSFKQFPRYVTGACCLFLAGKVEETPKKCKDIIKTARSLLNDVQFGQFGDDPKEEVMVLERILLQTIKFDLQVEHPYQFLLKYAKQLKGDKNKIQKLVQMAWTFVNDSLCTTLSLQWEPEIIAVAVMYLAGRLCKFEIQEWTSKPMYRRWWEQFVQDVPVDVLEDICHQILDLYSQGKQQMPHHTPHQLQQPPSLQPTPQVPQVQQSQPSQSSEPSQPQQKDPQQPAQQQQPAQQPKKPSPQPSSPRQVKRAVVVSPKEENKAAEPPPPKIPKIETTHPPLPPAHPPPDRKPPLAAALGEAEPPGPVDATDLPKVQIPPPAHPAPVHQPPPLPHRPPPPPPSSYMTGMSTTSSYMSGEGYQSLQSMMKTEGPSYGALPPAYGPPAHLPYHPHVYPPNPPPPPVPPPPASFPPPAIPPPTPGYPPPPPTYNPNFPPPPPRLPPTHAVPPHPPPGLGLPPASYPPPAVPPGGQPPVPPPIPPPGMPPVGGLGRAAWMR

With `c1ccc2[nH]c(CNc3nn(C4CCCC4)c4nc(C5CC5)cnc34)nc2c1` [Example 39, N-[(1H-benzimidazol-2-yl)methyl]-1-cyclopentyl-6-cyclopropyl-1H-pyrazolo[3,4-b]pyrazin-3-amine], at CDK12, the DC50 stood at 38.2 nM and the “(IC50 CDK12 high ATP) to (Degradation DC50 CDK12) ratio” value was greater than 534. The IC50 on CDK2/CyclinE is greater than 20000 nM.
For `O[C@H]1C[C@@H](n2nc(NCc3nc4ccccc4[nH]3)c3ncc(C4CC4)nc32)C1` [Example 40, cis-3-(3-{[(1H-benzimidazol-2-yl)methyl]amino}-6-cyclopropyl-1H-pyrazolo[3,4-b]pyrazin-1-yl)cyclobutan-1-ol], in that order: 2.55 nM, greater than 7840 and greater than 20000 nM.
Regarding `O[C@H]1C[C@H](n2nc(NCc3nc4ccccc4[nH]3)c3ncc(C4CC4)nc32)C1` [Example 43, trans-3-(3-{[(1H-benzimidazol-2-yl)methyl]amino}-6-cyclopropyl-1H-pyrazolo[3,4-b]pyrazin-1-yl)cyclobutan-1-ol], the DC50 at CDK12 stood at 9.53 nM. The IC50 at CDK2/CyclinE is greater than 20000 nM.
As for `c1ccc2[nH]c(CNc3nn(C4C[C@H]5CC[C@@H](C4)O5)c4nc(C5CC5)cnc34)nc2c1` (stereo partly drawn) [Example 45, exo/endo-N-[(1H-benzimidazol-2-yl)methyl]-6-cyclopropyl-1-(8-oxabicyclo[3.2.1]octan-3-yl)-1H-pyrazolo[3,4-b]pyrazin-3-amine], the DC50 on CDK12 amounted to 8.11 nM. Moreover, the IC50 at CDK2/CyclinE is greater than 18200 nM.
Taken in the same sequence, the figures for `OC[C@H]1C[C@H](n2nc(NCc3nc4ccccc4[nH]3)c3ncc(C4CC4)nc32)C1` [Example 46, [trans-3-(3-{[(1H-benzimidazol-2-yl)methyl]amino}-6-cyclopropyl-1H-pyrazolo[3,4-b]pyrazin-1-yl)cyclobutyl]methanol] were 13.8 nM and greater than 20000 nM.
`OC[C@H]1C[C@@H](n2nc(NCc3nc4ccccc4[nH]3)c3ncc(C4CC4)nc32)C1` [Example 47, [cis-3-(3-{[(1H-benzimidazol-2-yl)methyl]amino}-6-cyclopropyl-1H-pyrazolo[3,4-b]pyrazin-1-yl)cyclobutyl]methanol]: the DC50 at CDK12 turned out to be 22.8 nM. Further, the IC50 on CDK2/CyclinE is greater than 20000 nM.
Consider `c1ccc2[nH]c(CNc3nn(C4CCC4)c4nc(C5CC5)cnc34)nc2c1` [Example 49, N-[(1H-benzimidazol-2-yl)methyl]-1-cyclobutyl-6-cyclopropyl-1H-pyrazolo[3,4-b]pyrazin-3-amine], for which, on CDK12, the DC50 worked out at 29.2 nM and the “(IC50 CDK12 high ATP) to (Degradation DC50 CDK12) ratio” value is greater than 685. Besides, at CDK2/CyclinE, the IC50 is greater than 20000 nM.
With `O[C@H]1CC[C@H](n2nc(NCc3nc4ccccc4[nH]3)c3ncc(C4CC4)nc32)CC1` [Example 50, trans-4-(3-{[(1H-benzimidazol-2-yl)methyl]amino}-6-cyclopropyl-1H-pyrazolo[3,4-b]pyrazin-1-yl)cyclohexan-1-ol], the DC50 on CDK12 stood at 3.15 nM. At CDK2/CyclinE, the IC50 was greater than 20000 nM.
Taken in the same sequence, the figures for `O[C@H]1CC[C@@H](n2nc(NCc3nc4ccccc4[nH]3)c3ncc(C4CC4)nc32)CC1` [Example 51, cis-4-(3-{[(1H-benzimidazol-2-yl)methyl]amino}-6-cyclopropyl-1H-pyrazolo[3,4-b]pyrazin-1-yl)cyclohexan-1-ol] were 10.7 nM and greater than 20000 nM.
For `CC1(C)CC(n2nc(NCc3nc4ccccc4[nH]3)c3ncc(C4CC4)nc32)CC(C)(C)O1` [Example 52, N-[(1H-benzimidazol-2-yl)methyl]-6-cyclopropyl-1-(2,2,6,6-tetramethyloxan-4-yl)-1H-pyrazolo[3,4-b]pyrazin-3-amine], in that order: 49.3 nM and greater than 20000 nM.
For `Fc1ccc2[nH]c(CNc3nn(C4CCOCC4)c4nc(C5CC5)cnc34)nc2c1` [Example 53, 6-cyclopropyl-N-[(5-fluoro-1H-benzimidazol-2-yl)methyl]-1-(oxan-4-yl)-1H-pyrazolo[3,4-b]pyrazin-3-amine], in that order: 32 nM and greater than 20000 nM.
In the case of `c1ccc2[nH]c(CNc3nn(C4CC5(COC5)C4)c4nc(C5CC5)cnc34)nc2c1` [Example 54, N-[(1H-benzimidazol-2-yl)methyl]-6-cyclopropyl-1-(2-oxaspiro[3.3]heptan-6-yl)-1H-pyrazolo[3,4-b]pyrazin-3-amine], the DC50 at CDK12 was determined as 13.1 nM. The IC50 on CDK2/CyclinE is greater than 20000 nM.
For `c1ccc2[nH]c(CNc3nn(C4COC4)c4nc(C5CC5)cnc34)nc2c1` [Example 55, N-[(1H-benzimidazol-2-yl)methyl]-6-cyclopropyl-1-(oxetan-3-yl)-1H-pyrazolo[3,4-b]pyrazin-3-amine], in that order: 46.9 nM and greater than 20000 nM.
Regarding `O[C@H]1CC[C@H](n2nc(NCc3nc4cc(F)ccc4[nH]3)c3ncc(C4CC4)nc32)CC1` [Example 56, trans-4-(6-cyclopropyl-3-{[(5-fluoro-1H-benzimidazol-2-yl)methyl]amino}-1H-pyrazolo[3,4-b]pyrazin-1-yl)cyclohexan-1-ol], at CDK12, the DC50 was determined as 7.11 nM. In addition, on CDK2/CyclinE, the IC50 was greater than 20000 nM.
Turning to `OCCCn1nc(NCc2nc3ccccc3[nH]2)c2ncc(C3CC3)nc21` [Example 60, 3-(3-{[(1H-benzimidazol-2-yl)methyl]amino}-6-cyclopropyl-1H-pyrazolo[3,4-b]pyrazin-1-yl)propan-1-ol], on CDK12, the DC50 turned out to be 41.2 nM and the “(IC50 CDK12 high ATP) to (Degradation DC50 CDK12) ratio” value is given as greater than 102. Also, on CDK2/CyclinE, the IC50 was greater than 20000 nM.
In the case of `COCCCn1nc(NCc2nc3ccccc3[nH]2)c2ncc(C3CC3)nc21` [Example 61, N-[(1H-benzimidazol-2-yl)methyl]-6-cyclopropyl-1-(3-methoxypropyl)-1H-pyrazolo[3,4-b]pyrazin-3-amine], at CDK12, the DC50 was found to be 163 nM and the “(IC50 CDK12 high ATP) to (Degradation DC50 CDK12) ratio” value is greater than 123. For the same compound, the IC50 at CDK2/CyclinE was greater than 20000 nM.
As for `COCCn1nc(NCc2nc3ccccc3[nH]2)c2ncc(C3CC3)nc21` [Example 65, N-[(1H-benzimidazol-2-yl)methyl]-6-cyclopropyl-1-(2-methoxyethyl)-1H-pyrazolo[3,4-b]pyrazin-3-amine], at CDK12, the DC50 was determined as 20.5 nM. The IC50 on CDK2/CyclinE is greater than 20000 nM.
As to `OCCn1nc(NCc2nc3ccccc3[nH]2)c2ncc(C3CC3)nc21` [Example 66, 2-(3-{[(1H-benzimidazol-2-yl)methyl]amino}-6-cyclopropyl-1H-pyrazolo[3,4-b]pyrazin-1-yl)ethan-1-ol], on CDK12, the DC50 was 19.4 nM and the “(IC50 CDK12 high ATP) to (Degradation DC50 CDK12) ratio” value is reported as greater than 1116. Further, the IC50 at CDK2/CyclinE was greater than 20000 nM.
Taken in the same sequence, the figures for `COC(C)(C)CCn1nc(NCc2nc3ccccc3[nH]2)c2ncc(C3CC3)nc21` [Example 67, N-[(1H-benzimidazol-2-yl)methyl]-6-cyclopropyl-1-(3-methoxy-3-methylbutyl)-1H-pyrazolo[3,4-b]pyrazin-3-amine] were 21 nM, greater than 937 and greater than 20000 nM.
As for `CN(C)CCn1nc(NCc2nc3ccccc3[nH]2)c2ncc(C3CC3)nc21` [Example 68, N-[(1H-benzimidazol-2-yl)methyl]-6-cyclopropyl-1-[2-(dimethylamino)ethyl]-1H-pyrazolo[3,4-b]pyrazin-3-amine], on CDK12, the DC50 is 29.1 nM and the “(IC50 CDK12 high ATP) to (Degradation DC50 CDK12) ratio” value was greater than 687. For the same compound, on CDK2/CyclinE, the IC50 was greater than 20000 nM.
